Test results: patent US20210261621A1, “Preparation of Dilipid Polymixins and Use Thereof as Antimicrobial Adjuvants” (priority 2018, published 2021)
≈ marks a conversion by molar mass, not a printed value. Like-named read-outs stand apart in the source and are kept apart here. Positions of bridges follow the written chain, without caps; N, C: chain ends. Non-standard residues stand in square brackets, D forms with d. Residues, ends and D or L forms follow the SMILES beside them. *: point of attachment. Acetyl(1-adamantyl) = O=C(CC12CC3CC(CC(C3)C1)C2)*; Octanoyl = CCCCCCCC(=O)*; Dab = NCC[C@H](N)C(=O)O

Legend:
S. pneumoniae ATCC 49619 = format: cell-based
Text: (§1) Bacterial strains were either obtained from the American Type Culture Collection (ATCC), Canadian National Intensive Care Unit (CAN-ICU) surveillance study or the Canadian Ward Surveillance (CANWARD) study. Strains from both CAN-ICU and CANWARD are isolates recovered from patients diagnosed with a presumed infectious disease that were admitted in a participating medical center across Canada. Efflux-deficient strain PAO200 (lacking MexAB-OprM efflux system) and PA0750 (lacking MexAB-OprM, MexCD-OprJ, MexEF-OprN, MexJK and MexXY efflux systems, and the outer membrane protein OpmH) were kindly gifted by Dr. Ayush Kumar (University of Manitoba).
(§2) The in vitro antibacterial activity of the compounds studied were assessed by broth microdilution susceptibility testing following CLSI guidelines. Bacterial cultures were grown overnight prior to the assay. The overnight grown cultures were diluted in saline to 0.5 McFarland turbidity, followed by 1:50 dilution in Mueller-Hinton broth (MHB) for inoculation to a final concentration of approximately 5×10^5 colony forming units/mL. Testing was performed on 96-well plates where the tested compounds were 2-fold serially diluted in MHB and incubated with equal volumes of bacterial inoculum at 37° C. for 18 h. […] Wells containing MHB with or without bacterial cells were used as positive or negative control, respectively.

E. faecium ATCC 27270 = format: cell-based
Text: as §1, §2

E. faecalis ATCC 29212 = format: cell-based
Text: as §1, §2

E. coli 94393 = format: cell-based, Escherichia coli
Protocol: (§3) We then addressed the possibility for the dilipid polymyxins to display enhanced antibacterial activity against colistin-resistant Gram-negative pathogens. […] The extended hydrophobic region of the dilipid polymyxin may provide additional hydrophobic interactions to the outer membrane of colistin-resistant organisms. Eight MDR colistin-resistant Gram-negative bacterial isolates were tested, including two E. coli isolates harboring the mcr-1 plasmid-encoded polymyxin resistance gene. We found no difference between the antibacterial activity of dilipid polymyxins and colistin against colistin-resistant Gram-negative bacteria (Table 3).
as §1, §2

E. coli 94474 = format: cell-based, Escherichia coli
Protocol: as §3, §1, §2

P. aeruginosa PAO200 = details: for MIC: P. aeruginosa PAO200, efflux-deficient strain that lacks the MexAB-OprM pump; for difference in MIC among the three P. aeruginosa strains tested: PAO1, PAO200, PAO750
Text: (§4) To our curiosity, we explored whether efflux can affect the activity of polymyxins. It is widely accepted that polymyxins disrupt Gram-negative bacterial membranes that result to intracellular component leakage and bacterial cell death. However, for this to occur requires the agent to reach the periplasmic space to interact and disrupt the inner membrane. Active efflux may potentially expel polymyxins out of the periplasm, effectively reducing its periplasmic and intracellular concentrations. To study the effect of efflux on polymyxins in Gram-negative pathogens, we used P. aeruginosa as they inherently overexpress efflux systems such as MexAB-OprM, MexCD-OprJ and MexXY-OprM. Moreover, antibiotic substrates for these efflux systems are mostly characterized. We evaluated and compared the activity of the dilipid polymyxins, colistin and PMBN against wild-type PAO1 and two efflux-deficient P. aeruginosa isogenic mutants (Table 5). The strain PAO200 lacks the MexAB-OprM efflux system while strain PAO750 lacks five clinically-relevant pumps (MexAB-OprM, MexCD-OprJ, MexEF-OprN, MexJK and MexXY) and outer membrane protein OpmH.
as §1, §2

P. aeruginosa PAO750 = details: P. aeruginosa PAO750, efflux-deficient strain that lacks five pumps and OpmH
Text: as §4, §1, §2

E. coli CAN-ICU 61714 = format: cell-based, Escherichia coli
Text: as §1, §2

E. coli ATCC 25922 = format: cell-based, Escherichia coli
Text: as §1, §2

E. coli CAN-ICU 63074 = format: cell-based, Escherichia coli
Text: as §1, §2

E. coli 107115 = format: cell-based, Escherichia coli
Text: as §1, §2

P. aeruginosa ATCC 27853 = format: cell-based, Pseudomonas aeruginosa
Text: as §1, §2

P. aeruginosa PA095 = format: cell-based, Pseudomonas aeruginosa
Text: as §1, §2

[1] = tested on: P. aeruginosa PA264-104354; format: cell-based, Pseudomonas aeruginosa
Text: as §1, §2

P. aeruginosa PAO1 = format: cell-based, Pseudomonas aeruginosa
Text: as §1, §2

A. baumannii ATCC 17978 = format: cell-based, Acinetobacter baumannii
Text: as §1, §2

A. baumannii AB031 = format: cell-based, Acinetobacter baumannii
Text: as §1, §2

A. baumannii 110193 = format: cell-based, Acinetobacter baumannii
Text: as §1, §2

A. baumannii LAC-4 = format: cell-based, Acinetobacter baumannii
Text: as §1, §2

A. baumannii AB027 = format: cell-based, Acinetobacter baumannii
Text: as §1, §2

[2] = tested on: A. baumannii CAN-ICU 63169; format: cell-based, Acinetobacter baumannii
Text: as §1, §2

K. pneumoniae 113250 = format: cell-based, Klebsiella pneumoniae
Protocol: as §3, §1, §2

K. pneumoniae 113254 = format: cell-based, Klebsiella pneumoniae
Protocol: as §3, §1, §2

MSSE CANWARD-2008 81388 = format: cell-based, Staphylococcus epidermidis; details: for MIC: MSSE CANWARD-2008 81388 (methicillin-susceptible Staphylococcus epidermidis)
Text: as §1, §2

Molecule: colistin [reference compound]
- MIC (S. pneumoniae ATCC 49619; S. pneumoniae ATCC 49619): 512 µg/mL
- MIC (E. faecium ATCC 27270; E. faecium ATCC 27270): 256 µg/mL
- MIC (E. faecalis ATCC 29212; E. faecalis ATCC 29212): 256 µg/mL
- MIC (E. coli 94393; E. coli 94393, colistin-resistant multidrug-resistant isolate): 4 µg/mL
- MIC (E. coli 94474; E. coli 94474, colistin-resistant multidrug-resistant isolate): 16 µg/mL
- MIC (P. aeruginosa PAO200): 0.5 µg/mL
- difference in MIC among the three P. aeruginosa strains tested (P. aeruginosa PAO200): no difference
- MIC (P. aeruginosa PAO750): 0.5 µg/mL
- MIC (E. coli CAN-ICU 61714; E. coli CAN-ICU 61714): 0.5 µg/mL
- MIC (E. coli ATCC 25922; E. coli ATCC 25922): 0.5 µg/mL
- MIC (E. coli CAN-ICU 63074; E. coli CAN-ICU 63074): ≤0.5 µg/mL
- MIC (E. coli 107115; E. coli 107115): 0.5 µg/mL
- MIC (P. aeruginosa ATCC 27853; P. aeruginosa ATCC 27853): 2 µg/mL
- MIC (P. aeruginosa PA095; P. aeruginosa PA095): 0.25 µg/mL
- MIC ([1]; P. aeruginosa PA264-104354): 2 µg/mL
- MIC (P. aeruginosa PAO1; P. aeruginosa PAO1 (wild type)): 1 µg/mL
- MIC (A. baumannii ATCC 17978; A. baumannii ATCC 17978): 0.25 µg/mL
- MIC (A. baumannii AB031; A. baumannii AB031): 0.25 µg/mL
- MIC (A. baumannii 110193; A. baumannii 110193): 0.25 µg/mL
- MIC (A. baumannii LAC-4; A. baumannii LAC-4): 0.125 µg/mL
- MIC (A. baumannii AB027; A. baumannii AB027): 0.25 µg/mL
- MIC ([2]; A. baumannii CAN-ICU 63169): 32 µg/mL
- MIC (K. pneumoniae 113250; K. pneumoniae 113250, colistin-resistant multidrug-resistant isolate): 256 µg/mL
- MIC (K. pneumoniae 113254; K. pneumoniae 113254, colistin-resistant multidrug-resistant isolate): 256 µg/mL
- MIC (MSSE CANWARD-2008 81388): 256 µg/mL

Molecule: CCCCCCCC(=O)NCC[C@H](NC(=O)CCCCCCC)C(=O)N[C@H](C(=O)N[C@@H](CCN)C(=O)N[C@H]1CCNC(=O)[C@H]([C@@H](C)O)NC(=O)[C@H](CCN)NC(=O)[C@H](CCN)NC(=O)[C@H](CC(C)C)NC(=O)[C@@H](Cc2ccccc2)NC(=O)[C@H](CCN)NC1=O)[C@@H](C)O [Compound 2, Dioctanoic Acid (Di-C8) Polymyxin] (Octanoyl-[Dab](Octanoyl)T[Dab][Dab][Dab][dF]L[Dab][Dab]T; lactam 4-C)
- MIC (S. pneumoniae ATCC 49619; ATCC 49619): 32 µg/mL (≈ 24.3 µM)
- MIC (E. faecium ATCC 27270; ATCC 27270): 16 µg/mL (≈ 12.2 µM)
- MIC (E. faecalis ATCC 29212; ATCC 29212): 32 µg/mL (≈ 24.3 µM)
- MIC (E. coli 94393; 94393): 4 µg/mL (≈ 3.04 µM)
- MIC (E. coli 94474; 94474): 4 µg/mL (≈ 3.04 µM)
- MIC (P. aeruginosa PAO200): 2 µg/mL (≈ 1.52 µM)
- difference in MIC among the three P. aeruginosa strains tested (P. aeruginosa PAO200): no difference
- MIC (P. aeruginosa PAO750): 2 µg/mL (≈ 1.52 µM)
- MIC (E. coli CAN-ICU 61714; CAN-ICU 61714): 32 µg/mL (≈ 24.3 µM)
- MIC (E. coli ATCC 25922; ATCC 25922): 4 µg/mL (≈ 3.04 µM)
- MIC (E. coli CAN-ICU 63074; CAN-ICU 63074): 64 µg/mL (≈ 48.6 µM)
- MIC (E. coli 107115; 107115): 2 µg/mL (≈ 1.52 µM)
- MIC (P. aeruginosa ATCC 27853; ATCC 27853): 8 µg/mL (≈ 6.08 µM)
- MIC (P. aeruginosa PA095; PA095): 2 µg/mL (≈ 1.52 µM)
- MIC ([1]; PA264-104354): 4 µg/mL (≈ 3.04 µM)
- MIC (P. aeruginosa PAO1; PAO1): 4 µg/mL (≈ 3.04 µM)
- MIC (A. baumannii ATCC 17978; ATCC 17978): 32 µg/mL (≈ 24.3 µM)
- MIC (A. baumannii AB031; AB031): 8 µg/mL (≈ 6.08 µM)
- MIC (A. baumannii 110193; 110193): 16 µg/mL (≈ 12.2 µM)
- MIC (A. baumannii LAC-4; LAC-4): 16 µg/mL (≈ 12.2 µM)
- MIC (A. baumannii AB027; AB027): 32 µg/mL (≈ 24.3 µM)
- MIC ([2]; CAN-ICU 63169): 64 µg/mL (≈ 48.6 µM)
- MIC (K. pneumoniae 113250; 113250): >64 µg/mL
- MIC (K. pneumoniae 113254; 113254): >64 µg/mL
- MIC (MSSE CANWARD-2008 81388): 8 µg/mL (≈ 6.08 µM)
- fold better MIC than colistin (MSSE CANWARD-2008 81388; methicillin-susceptible Staphylococcus epidermidis): 32 fold

Molecule: CC(C)C[C@@H]1NC(=O)[C@@H](Cc2ccccc2)NC(=O)[C@H](CCN)NC(=O)[C@@H](NC(=O)[C@H](CCN)NC(=O)[C@@H](NC(=O)[C@H](CCNC(=O)CC23CC4CC(CC(C4)C2)C3)NC(=O)CC23CC4CC(CC(C4)C2)C3)[C@@H](C)O)CCNC(=O)[C@H]([C@@H](C)O)NC(=O)[C@H](CCN)NC(=O)[C@H](CCN)NC1=O [Compound 4, Diadamantane Acetic Acid (Di-Adamantyl) Polymyxin] ({Acetyl(1-adamantyl)}-[Dab](Acetyl(1-adamantyl))T[Dab][Dab][Dab][dF]L[Dab][Dab]T; lactam 4-C)
- MIC (S. pneumoniae ATCC 49619; S. pneumoniae ATCC 49619): 32 µg/mL (≈ 22.6 µM)
- MIC (E. faecium ATCC 27270; E. faecium ATCC 27270): 16 µg/mL (≈ 11.3 µM)
- MIC (E. faecalis ATCC 29212; E. faecalis ATCC 29212): 32 µg/mL (≈ 22.6 µM)
- MIC (E. coli 94393; 94393): 16 µg/mL (≈ 11.3 µM)
- MIC (E. coli 94474; 94474): 8 µg/mL (≈ 5.65 µM)
- MIC (P. aeruginosa PAO200): 4 µg/mL (≈ 2.83 µM)
- MIC (P. aeruginosa PAO750): 8 µg/mL (≈ 5.65 µM)
- MIC (E. coli CAN-ICU 61714; E. coli CAN-ICU 61714): 64 µg/mL (≈ 45.2 µM)
- MIC (E. coli ATCC 25922; E. coli ATCC 25922): 4 µg/mL (≈ 2.83 µM)
- MIC (E. coli CAN-ICU 63074; E. coli CAN-ICU 63074): 64 µg/mL (≈ 45.2 µM)
- MIC (E. coli 107115; E. coli 107115): 4 µg/mL (≈ 2.83 µM)
- MIC (P. aeruginosa ATCC 27853; P. aeruginosa ATCC 27853): 16 µg/mL (≈ 11.3 µM)
- MIC (P. aeruginosa PA095; P. aeruginosa PA095): 4 µg/mL (≈ 2.83 µM)
- MIC ([1]; P. aeruginosa PA264-104354): 8 µg/mL (≈ 5.65 µM)
- MIC (P. aeruginosa PAO1; P. aeruginosa PAO1 (wild type)): 4 µg/mL (≈ 2.83 µM)
- MIC (A. baumannii ATCC 17978; A. baumannii ATCC 17978): 32 µg/mL (≈ 22.6 µM)
- MIC (A. baumannii AB031; A. baumannii AB031): 16 µg/mL (≈ 11.3 µM)
- MIC (A. baumannii 110193; A. baumannii 110193): 32 µg/mL (≈ 22.6 µM)
- MIC (A. baumannii LAC-4; A. baumannii LAC-4): 16 µg/mL (≈ 11.3 µM)
- MIC (A. baumannii AB027; A. baumannii AB027): 64 µg/mL (≈ 45.2 µM)
- MIC ([2]; A. baumannii CAN-ICU 63169): 128 µg/mL (≈ 90.4 µM)
- MIC (K. pneumoniae 113250; 113250): >64 µg/mL
- MIC (K. pneumoniae 113254; 113254): >64 µg/mL
- MIC (MSSE CANWARD-2008 81388): 16 µg/mL (≈ 11.3 µM)
